Test results as given in the supplement of paper PMC10307832.

What was measured:
Experiment in all cases: relative viability (nuclei count vs DMSO), 5 days (fraction); higher = more cells survive
KN-93 + Lapatinib = compound: CN(C/C=C/C1=CC=C(C=C1)Cl)CC2=CC=CC=C2N(CCO)S(=O)(=O)C3=CC=C(C=C3)OC [KN-93] + CS(=O)(=O)CCNCc1ccc(-c2ccc3ncnc(Nc4ccc(OCc5cccc(F)c5)c(Cl)c4)c3c2)o1 [Lapatinib] (partner 2 µM)
Method in brief: (§1)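 Medians of duplicate plates are given as relative viability. That measure is the nuclei count in treated wells divided by the count in vehicle wells. Counts were taken on 4× images of lung cancer cell lines in 1536-well plates, 5 days after pin-tool dosing the day after seeding with one drug alone or a fixed anchor-drug dose plus five library-drug doses (not always all listed) in √10 steps.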

KN-93 + Bortezomib = compound: CN(C/C=C/C1=CC=C(C=C1)Cl)CC2=CC=CC=C2N(CCO)S(=O)(=O)C3=CC=C(C=C3)OC [KN-93] + CC(C)C[C@H](NC(=O)[C@H](Cc1ccccc1)NC(=O)c1cnccn1)B(O)O [Bortezomib] (partner 0.002 µM)
Method in brief: as §1

KN-93 + Palbociclib = compound: CN(C/C=C/C1=CC=C(C=C1)Cl)CC2=CC=CC=C2N(CCO)S(=O)(=O)C3=CC=C(C=C3)OC [KN-93] + CC(=O)c1c(C)c2cnc(Nc3ccc(N4CCNCC4)cn3)nc2n(C2CCCC2)c1=O [Palbociclib] (partner 0.5 µM)
Method in brief: as §1

KN-93 + Pemetrexed = compound: CN(C/C=C/C1=CC=C(C=C1)Cl)CC2=CC=CC=C2N(CCO)S(=O)(=O)C3=CC=C(C=C3)OC [KN-93] + Nc1nc2[nH]cc(CCc3ccc(C(=O)N[C@@H](CCC(=O)O)C(=O)O)cc3)c2c(=O)[nH]1 [Pemetrexed] (partner 0.2 µM)
Method in brief: as §1

KN-93 + Pictilisib = compound: CN(C/C=C/C1=CC=C(C=C1)Cl)CC2=CC=CC=C2N(CCO)S(=O)(=O)C3=CC=C(C=C3)OC [KN-93] + CS(=O)(=O)N1CCN(Cc2cc3nc(-c4cccc5[nH]ncc45)nc(N4CCOCC4)c3s2)CC1 [Pictilisib] (partner 1 µM)
Method in brief: as §1

Cell Line	relative viability (KN-93 + Lapatinib; first compound 0.08 µM)	relative viability (KN-93 + Lapatinib; first compound 0.253 µM)	relative viability (KN-93 + Lapatinib; first compound 2.53 µM)	relative viability (KN-93 + Lapatinib; first compound 8 µM)	relative viability (KN-93 + Bortezomib; first compound 0.08 µM)	relative viability (KN-93 + Bortezomib; first compound 2.53 µM)	relative viability (KN-93 + Bortezomib; first compound 8 µM)	relative viability (KN-93 + Palbociclib; first compound 0.08 µM)	relative viability (KN-93 + Palbociclib; first compound 0.253 µM)	relative viability (KN-93 + Palbociclib; first compound 2.53 µM)	relative viability (KN-93 + Palbociclib; first compound 8 µM)	relative viability (KN-93 + Pemetrexed; first compound 0.08 µM)	relative viability (KN-93 + Pemetrexed; first compound 0.253 µM)	relative viability (KN-93 + Pemetrexed; first compound 2.53 µM)	relative viability (KN-93 + Pemetrexed; first compound 8 µM)	relative viability (KN-93 + Pictilisib; first compound 0.08 µM)	relative viability (KN-93 + Pictilisib; first compound 0.253 µM)	relative viability (KN-93 + Pictilisib; first compound 2.53 µM)	relative viability (KN-93 + Pictilisib; first compound 8 µM)	relative viability (KN-93 + Bortezomib; first compound 0.253 µM)
HCC-78	0.881	0.703	1.02	0.21	0.462	0.37	0.531	0.47	0.513	0.446	0.427	0.816	1.02	0.911	0.935	0.251	0.185	0.193	0.182	–
HCC-366	–	1.24	1.7	0.83	–	1.57	0.955	0.407	0.531	0.563	0.221	0.157	0.175	0.189	0.133	0.117	0.0961	0.134	0.107	1.48
HCC-827	0.218	0.204	0.197	0.194	1.01	0.972	0.872	0.591	0.492	0.845	0.422	0.243	0.286	0.257	0.286	1.08	0.982	1.03	0.986	1.11
HOP-62	0.94	1.23	0.985	1	0.442	0.958	0.711	0.461	0.573	0.552	0.477	0.28	0.383	0.346	0.322	0.626	0.741	0.968	0.428	1.28
IA-LM	0.837	0.831	1.31	0.572	0.738	0.991	0.481	–	–	–	–	–	–	–	–	0.27	0.309	0.767	0.349	0.875
LCLC-103H	–	–	–	–	0.968	1.16	0.949	0.472	0.458	0.49	0.518	0.455	0.443	0.515	0.475	0.617	0.581	0.614	0.537	1.07
LK-2	0.972	1.26	1.02	0.862	–	–	–	0.775	1.12	0.834	0.559	0.275	0.273	0.288	0.2	0.683	0.679	0.725	0.314	–
NCI-H358	0.49	0.528	0.444	0.291	–	–	–	0.14	0.136	0.138	0.131	0.166	0.182	0.169	0.157	0.39	0.381	0.327	0.28	–
NCI-H441	–	–	–	–	–	0.365	0.22	–	0.171	0.185	0.147	–	0.242	0.293	0.268	0.356	0.53	0.591	0.3	0.672
NCI-H522	–	–	–	–	–	–	–	1.1	1.31	1	0.81	1.02	0.987	1.29	0.779	–	–	–	–	–
NCI-H596	1.05	0.945	1.23	0.985	1.02	1.18	0.942	–	–	–	–	0.528	0.493	0.589	0.455	0.419	0.361	0.381	0.368	1.29
NCI-H727	0.776	0.762	0.802	0.486	0.66	0.785	0.391	0.606	–	0.67	0.655	–	–	–	–	0.434	0.264	0.379	0.231	0.853
NCI-H1395	1.63	1.11	1.04	0.679	–	–	–	0.602	0.69	0.598	0.478	0.972	0.926	0.86	0.489	0.654	0.682	1.02	0.477	–
NCI-H1563	0.946	1	0.937	0.641	1	0.778	0.675	–	–	–	–	0.759	0.822	0.799	0.597	0.661	0.618	0.648	0.608	0.884
NCI-H1703	1.06	1.41	1.03	0.265	0.381	0.418	0.166	–	–	–	–	–	–	–	–	0.257	0.307	0.211	0.247	0.302
NCI-H1793	–	0.804	0.992	0.556	–	–	–	0.38	0.311	0.318	0.253	0.97	0.899	1.1	0.528	–	0.334	0.382	0.267	–
NCI-H1944	0.84	0.793	0.96	0.771	–	–	–	0.368	0.328	0.327	0.243	0.599	0.598	0.545	0.57	0.372	0.292	0.332	0.34	–
NCI-H2170	0.271	0.257	0.274	0.249	–	–	–	0.35	0.48	0.403	0.338	0.268	0.302	0.276	0.252	0.303	0.266	0.319	0.255	–
NCI-H2342	–	–	–	–	–	–	–	0.538	0.54	0.565	0.507	0.735	0.679	0.859	0.717	–	–	–	–	–
SK-MES-1	0.464	0.425	0.514	0.425	–	–	–	0.367	0.301	0.354	0.284	1.03	0.945	1.05	0.806	0.332	0.327	0.419	0.253	–
